From ChEMBL document CHEMBL1201862, “PubChem BioAssay data set” (2004) come the findings set out here.

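Five concentrations, 48 hours, 96-well plates. GI50 marks 50% less growth.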 Active and inactive are the calls of the source. Rule as the data show it: active = GI50 up to about 1.1 µM and inactive = higher.

Test systems include ACHN; EKVX; NCI-H226; T47D; UACC-62; SNB-75; RPMI-8226; UACC-257; M14; HOP-62; IGROV-1; SK-MEL-28; MCF7; OVCAR-5; MDA-MB-231; BT-549; HT-29; TK-10; HCT-116; SK-MEL-2.
Common to all, as to assay: DTP human tumour cell line panel, 48 h

Take `CC[P+](C#Cc1ccccc1)(c1ccccc1)c1ccccc1`: the GI50 (as a rule, the concentration that inhibits growth by half) was 3.94 µM (inactive) with ACHN; 2.26 µM (inactive) in the test on EKVX; 2.82 µM (inactive) in the test on NCI-H226; 2.18 µM (inactive) in the test on T47D; 1.63 µM (inactive) with UACC-62; 1.78 µM (inactive) in the test with SNB-75. Besides, the GI50 in the test with RPMI-8226 is 0.242 µM (active); with UACC-257 it was 1.21 µM (inactive); in the test on M14 it was 1.66 µM (inactive); with HOP-62, 2.44 µM (inactive); with IGROV-1, 3.1 µM (inactive); with SK-MEL-28, 1.95 µM (inactive). Further, the GI50 in the test on MCF7 is 3.09 µM (inactive); with OVCAR-5, 4.06 µM (inactive); in the test with MDA-MB-231, 3.18 µM (inactive); in the test with BT-549, 1.31 µM (inactive); in the test on HT-29, 2.43 µM (inactive); with TK-10, 1.58 µM (inactive). Also, the values for the GI50 with HCT-116 and in the test with SK-MEL-2 were 1.77 µM (inactive) and 1.98 µM (inactive), respectively.

`CCc1c[n+]2c(cc1C1=CN3c4ccccc4[C@]45CCN6C/C(=C/CO)[C@H](C[C@H]64)[C@@H]([C@@H]1O)[C@H]35)-c1[nH]c3ccccc3c1CC2`: the GI50 in the test with ACHN, in the test with EKVX, in the test with NCI-H226, in the test on T47D, in the test on UACC-62 and in the test on SNB-75 was > 50 µM (inactive) throughout. Further, the GI50 in the test with RPMI-8226, with UACC-257, with M14, in the test on HOP-62, in the test with IGROV-1 and in the test with SK-MEL-28 was > 50 µM (inactive) throughout. The GI50 with MCF7, with OVCAR-5, in the test with MDA-MB-231, in the test with BT-549, in the test on HT-29 and with TK-10 was > 50 µM (inactive) in each case. Moreover, the GI50 with HCT-116 and in the test with SK-MEL-2 was > 50 µM (inactive) throughout.

For the molecule `COC(=O)c1cc(/C=C2\Cc3cc4c(cc3C2=O)CCC4)cc2c1CCC2`, the GI50 in the test on ACHN, in the test with EKVX, in the test with NCI-H226, in the test with T47D, in the test with UACC-62 and with SNB-75 was > 100 µM (inactive) throughout. Further, the GI50 in the test with RPMI-8226, with UACC-257, in the test with M14, with HOP-62, in the test on IGROV-1 and in the test with SK-MEL-28 was > 100 µM (inactive) throughout. For the same molecule, the GI50 in the test on MCF7, in the test with OVCAR-5, with MDA-MB-231, with BT-549, in the test with HT-29 and in the test on TK-10 was > 100 µM (inactive) throughout. Besides, the GI50 was 63 µM (inactive) in the test on HCT-116 and > 100 µM (inactive) in the test on SK-MEL-2.

In the case of `O=C(NO)c1ccc(OCc2cccc(Cl)c2)cc1`, the GI50 was 4.57 µM (inactive) in the test on ACHN; 10.8 µM (inactive) in the test with EKVX; 11.9 µM (inactive) with NCI-H226; 6.97 µM (inactive) in the test on T47D; 5.4 µM (inactive) in the test with UACC-62; 9.2 µM (inactive) in the test on SNB-75. Moreover, the GI50 in the test on RPMI-8226 was 3.27 µM (inactive); with UACC-257, 13.6 µM (inactive); with M14, 12.9 µM (inactive); with HOP-62, 9.1 µM (inactive); in the test on IGROV-1, 6.67 µM (inactive); with SK-MEL-28, 12.3 µM (inactive). The GI50 with MCF7 was 12.7 µM (inactive); in the test with OVCAR-5 it was 6.15 µM (inactive); in the test on MDA-MB-231, 12.1 µM (inactive); in the test with BT-549 it was 13.7 µM (inactive); in the test with HT-29, 8.45 µM (inactive); with TK-10, 11.6 µM (inactive). The GI50 is 2.22 µM (inactive) in the test on HCT-116 and 12.8 µM (inactive) with SK-MEL-2.

On to `CC1=C2CC(C)(C)/C=C\C(=O)/C(C)=C\C3=C[C@H](C)C[C@]3(O2)C1=O`, for which the GI50 in the test with ACHN was 1.03 µM (active); in the test with EKVX it was 1.87 µM (inactive); in the test with NCI-H226, 3.46 µM (inactive); with T47D it was 0.544 µM (active); in the test with UACC-62, 1.05 µM (active); with SNB-75, 4.1 µM (inactive). The GI50 was 0.326 µM (active) in the test with RPMI-8226; 1.14 µM (inactive) in the test with UACC-257; 0.494 µM (active) in the test on M14; 6.43 µM (inactive) in the test on HOP-62; 1.56 µM (inactive) in the test with IGROV-1; 0.798 µM (active) in the test with SK-MEL-28. Besides, the GI50 was 0.343 µM (active) in the test with MCF7; 1.32 µM (inactive) in the test with OVCAR-5; 1.05 µM (active) in the test with MDA-MB-231; 0.518 µM (active) in the test with BT-549; 0.927 µM (active) in the test on HT-29; 2.03 µM (inactive) in the test with TK-10. The GI50 in the test with HCT-116 is 0.443 µM (active); in the test with SK-MEL-2 it was 2.4 µM (inactive).

In the case of `COC1/C=C/OC2(C)Oc3c(C)c(O)c4c(c3C2=O)C(=O)C=C(NC(=O)/C(C)=C\C=C\C(C)C(OC=O)C(C)C(O)C(C)C(OC(C)=O)C1C)C4=O` (stereo not given), the GI50 with ACHN was 8.67 µM (inactive); in the test with EKVX, 14.7 µM (inactive); with NCI-H226 it was 13.6 µM (inactive); in the test with T47D, 3.65 µM (inactive); in the test on UACC-62 it was 12.7 µM (inactive); in the test with SNB-75, 18.3 µM (inactive). The GI50 was 5.22 µM (inactive) with RPMI-8226; 11.4 µM (inactive) in the test with UACC-257; 8.65 µM (inactive) with M14; 18.7 µM (inactive) with HOP-62; 18.5 µM (inactive) in the test with IGROV-1; 6.64 µM (inactive) in the test on SK-MEL-28. Moreover, the GI50 is 2.93 µM (inactive) in the test with MCF7; 20.7 µM (inactive) with OVCAR-5; 13.4 µM (inactive) in the test with MDA-MB-231; 11.1 µM (inactive) with BT-549; 10.5 µM (inactive) in the test on HT-29; 16.6 µM (inactive) in the test on TK-10. Also, the GI50 in the test on HCT-116 is 4.82 µM (inactive); in the test on SK-MEL-2, 20 µM (inactive).

On to `Nc1nc(Cl)c2ncn(Cc3ccccc3CCl)c2n1`, for which the GI50 is 5.69 µM (inactive) in the test with ACHN; 15.9 µM (inactive) in the test with EKVX; 2.64 µM (inactive) in the test on NCI-H226; 24.2 µM (inactive) in the test on T47D; 2.21 µM (inactive) in the test with UACC-62; 8.13 µM (inactive) in the test on SNB-75. Further, the GI50 in the test on RPMI-8226 was 11.3 µM (inactive); in the test with UACC-257, 13.1 µM (inactive); in the test on M14, 5.73 µM (inactive); in the test on HOP-62 it was 21.6 µM (inactive); in the test on IGROV-1, 6.34 µM (inactive); in the test with SK-MEL-28 it was 4.81 µM (inactive). For the same molecule, the GI50 with MCF7 was 5.97 µM (inactive); in the test with OVCAR-5, 19.9 µM (inactive); in the test with MDA-MB-231, 2.96 µM (inactive); in the test on BT-549 it was 8.18 µM (inactive); in the test with HT-29, 3.85 µM (inactive); with TK-10 it was 17.7 µM (inactive). The GI50 with HCT-116 is 3.95 µM (inactive); in the test on SK-MEL-2, 18.5 µM (inactive).

Turning to `CNc1nc2n(CCO)c(-c3ccccc3)c(-c3ccccc3)nc-2c(=O)n1`, the GI50 in the test with ACHN, in the test with EKVX, in the test with NCI-H226, in the test on T47D, in the test with UACC-62 and in the test on SNB-75 was > 50 µM (inactive) throughout. Besides, the GI50 in the test with RPMI-8226 is > 50 µM (inactive); with UACC-257, > 50 µM (inactive); with M14, > 50 µM (inactive); in the test on HOP-62 it was 22.8 µM (inactive); with IGROV-1, > 50 µM (inactive); in the test on SK-MEL-28, > 50 µM (inactive). Besides, the GI50 with MCF7, in the test on OVCAR-5, in the test with MDA-MB-231, in the test on BT-549, with HT-29 and in the test on TK-10 was > 50 µM (inactive) each time. The GI50 in the test with HCT-116 and in the test with SK-MEL-2 was > 50 µM (inactive) each time.

Take `C=C1CN(C2=NCCO2)C1`: the GI50 in the test with ACHN, with EKVX, in the test on NCI-H226, in the test with T47D, in the test on UACC-62 and in the test with SNB-75 was > 100 µM (inactive) in each case. The GI50 in the test on RPMI-8226, in the test on UACC-257, with M14, in the test with HOP-62, in the test on IGROV-1 and in the test on SK-MEL-28 was > 100 µM (inactive) throughout. The GI50 in the test with MCF7, with OVCAR-5, with MDA-MB-231, in the test with BT-549, in the test with HT-29 and with TK-10 was > 100 µM (inactive) in each case. For the same molecule, the GI50 with HCT-116 and with SK-MEL-2 was > 100 µM (inactive) each time.

For `COc1ccc(CNC(C)C(=O)O)cc1` (stereo not given), the GI50 in the test on ACHN, in the test on EKVX, in the test with NCI-H226, with T47D, in the test with UACC-62 and with SNB-75 was > 100 µM (inactive) throughout. Further, the GI50 in the test with RPMI-8226, in the test on UACC-257, with M14, in the test on HOP-62, in the test with IGROV-1 and in the test with SK-MEL-28 was > 100 µM (inactive) each time. For the same molecule, the GI50 in the test on MCF7, in the test on OVCAR-5, in the test on MDA-MB-231, in the test with BT-549, in the test on HT-29 and in the test on TK-10 was > 100 µM (inactive) in each case. For the same molecule, the GI50 in the test with HCT-116 and in the test with SK-MEL-2 was > 100 µM (inactive) in each case.
